For one assay, the target named is human δ opioid receptor (Homo sapiens, UniProt P41143). In words: Opioid receptor binding, [3H]naltrindole, CHO cell membranes.
Another assay has as its system nociceptive thresholds. The class given is in vivo, rat. The note with it: for Antinociceptive effects of inhibitor alone: icv 50, 250, 500 nmol (fluconazole 250 and 500 nmol), TF or HP; for Antinociception of inhibitor alone: large icv doses (250-500 nmol), 7 – 11 min after administration, TF and HP; for Antagonism of azole-induced antinociception by naltrexone: naltrexone 5 mg/kg i.p. pre-treatment, TF 11 min post-icv azole.

The target of another assay is human κ opioid receptor (Homo sapiens, UniProt P41145). In words: Opioid receptor binding, [3H]U69,593, CHO cell membranes.
Assay [1] concerns the target T1, cDNA-expressed human CYP2C19 (Homo sapiens, UniProt P33261). In words: biochemical.
For assay [2], the system named is brain form of heme oxygenase. The note with it: ref Suppl. Table 1; cited from earlier work.
For assay [3], the system named is improgan antinociception. Type of assay: in vivo. The note with it: improgan 250 nmol icv, TF.
Assay [4] deals with improgan antinociception. Type of assay: in vivo, mouse. Particulars: for Decrease of average improgan antinociception in Cpr^low vs control mice: improgan 145 nmol icv.
In another assay the target is human μ opioid receptor (Homo sapiens, UniProt P35372). In words: Opioid receptor binding, [3H]DAMGO, CHO cell membranes.
Assay [5] addresses T1, cDNA-expressed human CYP2C19. The note with it: read-out: Ki CYP2C19; cited from earlier work.
In another assay the target is human H3 receptor (Homo sapiens, UniProt Q9Y5N1). Type of assay: binding.

Like-named read-outs stand apart in the source and are kept apart here.

Chain of human κ opioid receptor (P41145 whole entry): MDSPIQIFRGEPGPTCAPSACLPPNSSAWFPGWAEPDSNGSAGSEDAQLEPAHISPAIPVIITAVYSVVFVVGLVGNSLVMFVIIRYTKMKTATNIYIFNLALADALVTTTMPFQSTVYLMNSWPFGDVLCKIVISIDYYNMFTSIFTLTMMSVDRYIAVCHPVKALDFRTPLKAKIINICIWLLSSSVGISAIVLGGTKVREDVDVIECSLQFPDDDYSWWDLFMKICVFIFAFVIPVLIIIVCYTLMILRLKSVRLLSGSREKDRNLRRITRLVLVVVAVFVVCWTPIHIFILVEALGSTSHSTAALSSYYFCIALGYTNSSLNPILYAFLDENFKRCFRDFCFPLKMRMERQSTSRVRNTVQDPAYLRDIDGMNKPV
Chain of human μ opioid receptor (P35372 whole entry): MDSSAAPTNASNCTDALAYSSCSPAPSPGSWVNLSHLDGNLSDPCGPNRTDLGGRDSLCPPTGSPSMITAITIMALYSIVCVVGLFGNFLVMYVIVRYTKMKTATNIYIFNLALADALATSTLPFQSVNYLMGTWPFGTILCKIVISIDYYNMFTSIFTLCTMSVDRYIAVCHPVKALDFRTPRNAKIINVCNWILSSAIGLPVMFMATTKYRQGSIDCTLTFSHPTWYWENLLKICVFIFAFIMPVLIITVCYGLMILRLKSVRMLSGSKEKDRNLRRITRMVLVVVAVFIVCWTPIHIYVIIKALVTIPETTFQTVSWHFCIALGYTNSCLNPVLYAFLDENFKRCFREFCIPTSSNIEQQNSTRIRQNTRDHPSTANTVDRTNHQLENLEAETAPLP
Chain of human δ opioid receptor (P41143 whole entry): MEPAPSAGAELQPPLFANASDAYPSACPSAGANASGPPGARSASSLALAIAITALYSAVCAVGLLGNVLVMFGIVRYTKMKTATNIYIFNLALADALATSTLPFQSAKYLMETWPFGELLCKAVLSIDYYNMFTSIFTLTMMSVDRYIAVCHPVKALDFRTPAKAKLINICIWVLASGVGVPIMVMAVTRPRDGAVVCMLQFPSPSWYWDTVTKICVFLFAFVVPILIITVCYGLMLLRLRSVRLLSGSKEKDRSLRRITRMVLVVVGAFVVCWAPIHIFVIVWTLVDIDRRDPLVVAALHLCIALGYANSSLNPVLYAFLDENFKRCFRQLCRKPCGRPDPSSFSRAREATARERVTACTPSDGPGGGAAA
Chain of human H3 receptor (Q9Y5N1 whole entry): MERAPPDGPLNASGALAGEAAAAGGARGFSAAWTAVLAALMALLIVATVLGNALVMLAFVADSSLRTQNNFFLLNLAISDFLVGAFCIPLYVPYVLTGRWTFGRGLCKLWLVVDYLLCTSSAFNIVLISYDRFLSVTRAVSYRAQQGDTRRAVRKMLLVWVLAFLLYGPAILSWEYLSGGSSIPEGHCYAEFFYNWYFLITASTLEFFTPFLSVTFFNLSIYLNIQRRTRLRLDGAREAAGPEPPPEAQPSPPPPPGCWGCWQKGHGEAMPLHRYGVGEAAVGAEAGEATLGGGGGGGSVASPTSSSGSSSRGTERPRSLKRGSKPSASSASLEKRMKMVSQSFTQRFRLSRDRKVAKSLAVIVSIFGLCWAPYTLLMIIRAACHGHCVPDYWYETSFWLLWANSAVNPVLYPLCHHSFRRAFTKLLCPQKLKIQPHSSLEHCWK
T1 sequence (P33261 whole entry): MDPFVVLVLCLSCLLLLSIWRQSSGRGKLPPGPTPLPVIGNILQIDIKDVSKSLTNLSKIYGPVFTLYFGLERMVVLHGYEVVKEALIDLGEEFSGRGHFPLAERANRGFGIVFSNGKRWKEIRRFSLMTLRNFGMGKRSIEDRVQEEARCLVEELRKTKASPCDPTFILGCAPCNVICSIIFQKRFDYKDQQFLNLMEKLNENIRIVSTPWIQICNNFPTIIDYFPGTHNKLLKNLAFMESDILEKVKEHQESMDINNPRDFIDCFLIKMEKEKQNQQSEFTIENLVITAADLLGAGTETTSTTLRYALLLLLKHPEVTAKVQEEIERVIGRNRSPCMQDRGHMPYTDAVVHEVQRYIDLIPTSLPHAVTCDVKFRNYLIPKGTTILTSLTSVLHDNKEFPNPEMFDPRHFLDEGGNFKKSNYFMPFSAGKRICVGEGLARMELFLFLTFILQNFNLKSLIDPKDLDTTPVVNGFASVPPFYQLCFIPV

As to `Clc1ccccc1C(c1ccccc1)(c1ccccc1)n1ccnc1` [Clotrimazole, clotrimazole], the Ki at human δ opioid receptor is 770 ± 25 nM; at human κ opioid receptor it was 260 ± 8.7 nM; in [1], 316 nM. Besides, the “Antinociceptive effects of inhibitor alone” value with nociceptive thresholds is listed as “no significant antinociceptive effects”.

On to `OC(Cn1cncn1)(Cn1cncn1)c1ccc(F)cc1F` [Fluconazole, fluconazole], for which, in the assay on nociceptive thresholds, the “Antinociceptive effects of inhibitor alone” value is on record as “no significant antinociceptive effects”. The “Inhibition of the brain form of heme oxygenase” value in assay [2] is “do not inhibit”. Further, the “Antagonism of improgan antinociception” value in the assay on improgan antinociception [3] (inhibitor 100 nmol icv) was “nearly-complete antagonism”.

`CN/C(=N\C#N)NCCCc1c[nH]cn1` [Improgan]: the “Antinociception in wild-type mice” value with improgan antinociception [4] (145 nmol icv, 10 - 30 min after administration, tail immersion) is “significant, near-maximal antinociception”. The “Decrease of average improgan antinociception in Cpr^low vs control mice” value came to 59% in the assay on improgan antinociception [4] (no CC12, 10 min); 37% in the assay on improgan antinociception [4] (no CC12, 20 min); 41% in the assay on improgan antinociception [4] (no CC12, 30 min).

Take `CC(=O)N1CCN(c2ccc(OCC3COC(Cn4ccnc4)(c4ccc(Cl)cc4Cl)O3)cc2)CC1` (stereo not drawn) [Ketoconazole, ketoconazole]: the Ki at human δ opioid receptor, at human κ opioid receptor and on human μ opioid receptor was above 10000 nM in each case. Further, the “Antinociception of inhibitor alone” value in the assay on nociceptive thresholds was “notable antinociception”. In addition, the “Antagonism of azole-induced antinociception by naltrexone” value (“Antagonism … by naltrexone” for short) with nociceptive thresholds is “but not that produced by ketoconazole”.

Turning to `C#CCOc1ccccc1CCCCCC(=O)NS(C)(=O)=O` [MS-PPOH, N-methylsulfonyl-6-(2-propargyloxyphenyl)hexanamide], the Ki is above 10000 nM at human δ opioid receptor; above 10000 nM at human κ opioid receptor; above 10000 nM in assay [5]; above 10000 nM on human μ opioid receptor; 22200 nM at human H3 receptor. The “Attenuation of improgan antinociception” value in the assay with improgan antinociception [3] (inhibitor 30 nmol icv) is reported as “virtually complete attenuation”.

With `Clc1ccc(COC(Cn2ccnc2)c2ccc(Cl)cc2Cl)c(Cl)c1` (stereo not drawn) [Miconazole, miconazole], the Ki was 590 ± 29 nM at human δ opioid receptor, 760 ± 120 nM on human κ opioid receptor, 1400 nM at human μ opioid receptor and 4470 nM at human H3 receptor. Moreover, the “Antinociception of inhibitor alone” value with nociceptive thresholds is “notable antinociception”. Also, the “Antagonism … by naltrexone” value in the assay on nociceptive thresholds was “did not achieve robust statistical significance”. In the assay with improgan antinociception [3] (inhibitor 10 nmol icv), the “Antagonism of improgan antinociception” value was “nearly-complete antagonism”.

`Clc1ccc(CSC(Cn2ccnc2)c2ccc(Cl)cc2Cl)cc1` (stereo not drawn) [Sulconazole, sulconazole]: the “Antagonism … by naltrexone” value in the assay with nociceptive thresholds is “completely blocked”.

The values are drawn from PMC3065546 (Pain, 2011).
